# Results: ChEMBL document CHEMBL1201862, “PubChem BioAssay data set” (2004)
# Calls of active or inactive are those of the source.
# Experiments:
# Jurkat = test: antigen receptor-induced NF-kB inhibitors, dose response, Jurkat, luciferase reporter, luminescence, B- and T-cell (AID 489004); format: functional, cell-based; settings: Homo sapiens;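 further: NF-kB luciferase reporter Jurkat cells stimulated with PMA plus ionomycin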
# [1] = target: T1, Ubiquitin-conjugating enzyme E2 N (Homo sapiens, UniProt P61088); format: functional
# T1 sequence (P61088 whole entry): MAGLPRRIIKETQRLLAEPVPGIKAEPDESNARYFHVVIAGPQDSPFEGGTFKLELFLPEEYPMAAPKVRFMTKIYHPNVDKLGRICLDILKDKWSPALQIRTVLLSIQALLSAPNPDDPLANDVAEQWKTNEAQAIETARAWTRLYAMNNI
# INS1 = test: beta cell apoptosis inhibitors, cytokine rescue, dose response, luminescence, retest (AID 449756); format: functional, cell-based; settings: Rattus norvegicus;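 further: cell death triggered by IL-1 beta plus TNF-alpha plus IFN-gamma mixture; protective hits raise ATP signal compared with cytokine alone wells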
# [2] = CEM21 lymphoblast cell cytotoxicity, dose response, cytotoxicity control for viral fusion inhibitor project, CellTiter-Glo luminescence, cherry-picked (AID 652042); format: functional, cell-based;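 further: potency for signal decrease meaning cytotoxicity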
# Protein RecA = target: T2, Protein RecA (Mycobacterium tuberculosis, UniProt P9WHJ3); test: GFP-RecA MOA-DTT Measured in Biochemical System Using Plate Reader - 2047-05_Inhibitor_Dose_DryPowder_Activity. [Related pubchem assays (depositor defined):AID2223]; design: species or system Mycobacterium tuberculosis H37Rv
# T2 sequence (P9WHJ3 whole entry): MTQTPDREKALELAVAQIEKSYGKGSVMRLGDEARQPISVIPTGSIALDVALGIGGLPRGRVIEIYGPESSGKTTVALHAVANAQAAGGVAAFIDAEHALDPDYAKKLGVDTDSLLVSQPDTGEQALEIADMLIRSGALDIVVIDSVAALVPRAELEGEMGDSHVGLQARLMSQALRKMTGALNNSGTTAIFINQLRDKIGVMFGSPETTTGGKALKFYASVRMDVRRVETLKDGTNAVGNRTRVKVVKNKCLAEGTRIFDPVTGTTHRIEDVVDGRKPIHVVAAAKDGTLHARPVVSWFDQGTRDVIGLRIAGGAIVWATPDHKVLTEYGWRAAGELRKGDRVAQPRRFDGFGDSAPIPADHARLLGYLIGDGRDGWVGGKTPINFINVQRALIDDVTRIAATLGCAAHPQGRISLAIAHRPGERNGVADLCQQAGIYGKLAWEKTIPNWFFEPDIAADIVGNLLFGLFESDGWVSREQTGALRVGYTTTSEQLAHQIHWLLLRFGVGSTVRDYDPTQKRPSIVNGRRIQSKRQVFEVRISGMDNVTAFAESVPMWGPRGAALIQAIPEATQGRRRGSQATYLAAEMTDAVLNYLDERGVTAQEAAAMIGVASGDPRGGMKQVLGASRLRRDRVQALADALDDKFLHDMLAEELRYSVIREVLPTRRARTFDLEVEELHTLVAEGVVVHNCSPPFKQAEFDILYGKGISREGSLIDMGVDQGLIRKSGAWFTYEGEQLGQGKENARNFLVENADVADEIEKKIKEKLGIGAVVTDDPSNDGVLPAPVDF
# [3] = Luminescence-based dose response cell-based high throughput screening assay for cytotoxic compounds using the IEC-6 intestinal epithelial cell line. [Related pubchem assays: 1858 (Summary AID.), 1825 (Counterscreen.), 1907 (Confirmation screen.)]; format: functional
# [4] = Luminescence Cell-Based Dose Response HTS to Identify Inhibitors of 5'UTR Stem-Loop Driven Prion Protein mRNA Translation in H4 Neuroglioblastoma Cells. [Related pubchem assays: 1827 (Project Summary), 1813 (Primary HTS)]; format: functional
# cells = format: functional, cell-based
# [5] = target: Sphingosine 1-phosphate receptor 1 (Homo sapiens, UniProt P21453); format: functional;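 further: Tango beta-arrestin reporter U2OS cells stimulated with S1P near its EC80; inhibitor potency meaning antagonism of receptor activation by the natural agonist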
# Sphingosine 1-phosphate receptor 1, sequence (P21453 whole entry): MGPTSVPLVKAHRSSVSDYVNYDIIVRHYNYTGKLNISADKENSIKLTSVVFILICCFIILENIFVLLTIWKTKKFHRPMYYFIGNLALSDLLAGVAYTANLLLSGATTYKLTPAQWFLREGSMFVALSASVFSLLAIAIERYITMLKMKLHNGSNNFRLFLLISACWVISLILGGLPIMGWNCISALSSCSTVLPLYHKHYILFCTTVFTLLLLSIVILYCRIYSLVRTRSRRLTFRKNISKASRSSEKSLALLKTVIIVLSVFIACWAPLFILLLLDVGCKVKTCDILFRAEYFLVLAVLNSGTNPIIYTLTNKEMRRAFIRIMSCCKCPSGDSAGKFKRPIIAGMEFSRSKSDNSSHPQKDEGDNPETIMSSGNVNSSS
# [6] = target: Lysine-specific demethylase 4C (Homo sapiens, UniProt Q9H3R0); test: GASC-1 (JMJD2C) histone demethylase inhibitors, dose response, biochemical, DELFIA europium, cherry-picked samples (AID 488835); format: functional
# Lysine-specific demethylase 4C, sequence (Q9H3R0 whole entry): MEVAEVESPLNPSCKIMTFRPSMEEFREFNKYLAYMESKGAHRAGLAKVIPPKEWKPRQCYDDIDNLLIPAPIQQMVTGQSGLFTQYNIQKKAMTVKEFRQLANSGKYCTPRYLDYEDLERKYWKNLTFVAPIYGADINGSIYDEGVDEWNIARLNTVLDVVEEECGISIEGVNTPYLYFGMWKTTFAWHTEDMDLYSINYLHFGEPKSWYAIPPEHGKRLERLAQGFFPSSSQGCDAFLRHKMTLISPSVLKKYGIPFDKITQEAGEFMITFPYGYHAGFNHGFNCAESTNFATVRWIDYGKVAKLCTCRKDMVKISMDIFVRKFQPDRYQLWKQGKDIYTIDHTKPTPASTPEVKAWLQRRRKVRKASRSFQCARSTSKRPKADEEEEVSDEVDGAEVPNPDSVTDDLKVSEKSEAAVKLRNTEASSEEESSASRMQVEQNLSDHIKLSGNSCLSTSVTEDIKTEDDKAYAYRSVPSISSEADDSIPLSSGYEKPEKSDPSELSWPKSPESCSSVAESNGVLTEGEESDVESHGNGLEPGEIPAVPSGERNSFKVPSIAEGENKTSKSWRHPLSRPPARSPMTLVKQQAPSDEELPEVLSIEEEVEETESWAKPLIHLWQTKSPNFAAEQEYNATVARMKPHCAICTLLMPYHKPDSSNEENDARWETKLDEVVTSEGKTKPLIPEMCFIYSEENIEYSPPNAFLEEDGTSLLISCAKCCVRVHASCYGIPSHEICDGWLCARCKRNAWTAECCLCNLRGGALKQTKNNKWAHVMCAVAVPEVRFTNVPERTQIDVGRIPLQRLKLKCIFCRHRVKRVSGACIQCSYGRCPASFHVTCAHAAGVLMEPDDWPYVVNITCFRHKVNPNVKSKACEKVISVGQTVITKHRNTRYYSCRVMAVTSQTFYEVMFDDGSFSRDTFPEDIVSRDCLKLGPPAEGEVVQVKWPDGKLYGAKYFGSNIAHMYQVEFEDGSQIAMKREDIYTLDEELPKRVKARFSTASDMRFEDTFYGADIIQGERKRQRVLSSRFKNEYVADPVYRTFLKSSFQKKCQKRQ
# HeLa = test: HeLa cell cytotoxicity, dose response, cytotoxicity control, 24 h, cherry-picked samples (AID 504726); format: functional, cell-based; settings: Homo sapiens;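 further: potency for cytotoxicity as loss of luminescence signal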
# [7] = target: T3, Alkaline phosphatase, tissue-nonspecific isozyme (Homo sapiens, UniProt P05186); test: TNAP enzyme inhibition by screening hits, dose response, selectivity assay for mouse IAP inhibitor project, biochemical, human TNAP, uHTS hits (AID 488906); format: functional
# T3 sequence (P05186 whole entry): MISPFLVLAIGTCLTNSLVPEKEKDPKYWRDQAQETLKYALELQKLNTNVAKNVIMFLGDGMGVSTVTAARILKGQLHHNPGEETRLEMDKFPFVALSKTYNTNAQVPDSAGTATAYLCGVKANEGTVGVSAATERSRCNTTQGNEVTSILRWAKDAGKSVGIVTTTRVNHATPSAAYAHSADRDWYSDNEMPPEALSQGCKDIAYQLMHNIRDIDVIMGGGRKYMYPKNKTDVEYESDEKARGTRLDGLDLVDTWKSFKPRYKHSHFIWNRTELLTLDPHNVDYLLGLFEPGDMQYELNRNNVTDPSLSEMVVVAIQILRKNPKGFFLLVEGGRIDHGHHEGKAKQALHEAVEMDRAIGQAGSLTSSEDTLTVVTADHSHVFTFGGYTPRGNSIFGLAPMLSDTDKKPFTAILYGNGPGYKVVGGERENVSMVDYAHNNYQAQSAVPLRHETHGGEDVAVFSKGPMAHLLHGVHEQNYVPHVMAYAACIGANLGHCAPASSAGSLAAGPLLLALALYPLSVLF
# [8] = target: Intestinal-type alkaline phosphatase (Mus musculus, UniProt P24822); test: PubChem AID 488785; format: functional
# Intestinal-type alkaline phosphatase (Mus musculus, UniProt P24822), sequence (P24822 whole entry): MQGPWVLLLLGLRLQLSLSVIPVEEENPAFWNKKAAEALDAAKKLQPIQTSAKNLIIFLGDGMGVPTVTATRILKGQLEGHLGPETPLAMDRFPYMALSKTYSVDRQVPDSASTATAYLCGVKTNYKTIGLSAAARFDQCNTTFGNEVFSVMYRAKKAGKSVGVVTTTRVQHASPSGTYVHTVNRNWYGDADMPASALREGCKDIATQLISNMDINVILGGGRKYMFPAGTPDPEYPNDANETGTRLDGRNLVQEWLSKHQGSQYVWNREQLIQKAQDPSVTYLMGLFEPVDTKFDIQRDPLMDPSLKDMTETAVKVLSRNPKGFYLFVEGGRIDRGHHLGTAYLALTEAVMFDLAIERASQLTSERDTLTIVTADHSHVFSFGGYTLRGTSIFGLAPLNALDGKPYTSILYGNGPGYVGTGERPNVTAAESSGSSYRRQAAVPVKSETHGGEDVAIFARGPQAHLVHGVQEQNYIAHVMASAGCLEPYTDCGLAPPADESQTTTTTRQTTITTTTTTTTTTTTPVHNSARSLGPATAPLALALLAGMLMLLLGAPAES
# [9] = target: Intestinal-type alkaline phosphatase (Homo sapiens, UniProt P09923); test: inhibition of human intestinal alkaline phosphatase – biochemical, dose response (AID 488876); format: functional
# Intestinal-type alkaline phosphatase (Homo sapiens, UniProt P09923), sequence (P09923 whole entry): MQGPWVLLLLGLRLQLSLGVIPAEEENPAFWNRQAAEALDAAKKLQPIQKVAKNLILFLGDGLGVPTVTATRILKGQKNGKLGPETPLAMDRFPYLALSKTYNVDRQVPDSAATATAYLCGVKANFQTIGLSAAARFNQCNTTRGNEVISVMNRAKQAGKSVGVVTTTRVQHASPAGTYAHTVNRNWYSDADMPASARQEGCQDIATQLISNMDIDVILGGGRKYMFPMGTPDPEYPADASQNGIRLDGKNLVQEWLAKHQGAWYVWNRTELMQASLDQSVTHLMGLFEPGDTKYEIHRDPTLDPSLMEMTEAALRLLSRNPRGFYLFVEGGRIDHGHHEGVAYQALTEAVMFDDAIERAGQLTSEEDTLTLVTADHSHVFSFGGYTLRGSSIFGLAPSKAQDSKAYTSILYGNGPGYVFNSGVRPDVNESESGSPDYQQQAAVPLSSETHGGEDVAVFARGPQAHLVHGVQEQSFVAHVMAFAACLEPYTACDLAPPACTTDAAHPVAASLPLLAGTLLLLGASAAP
# [10] = target: Matrix metalloproteinase-14 (Homo sapiens, UniProt P50281); test: Dose Response confirmation of uHTS hits for a small molecule inhibitors of MT1-MMP activation in a fluorescence assay set 2.; format: functional
# Caspase-7 = target: T4, Caspase-7 (Homo sapiens, UniProt P55210); test: human caspase-7 inhibitors, dose response, selectivity assay for caspase-6 inhibitor project, biochemical, DEVD-R110 fluorescence, cherry-pick (AID 743295)
# T4 sequence (P55210 whole entry): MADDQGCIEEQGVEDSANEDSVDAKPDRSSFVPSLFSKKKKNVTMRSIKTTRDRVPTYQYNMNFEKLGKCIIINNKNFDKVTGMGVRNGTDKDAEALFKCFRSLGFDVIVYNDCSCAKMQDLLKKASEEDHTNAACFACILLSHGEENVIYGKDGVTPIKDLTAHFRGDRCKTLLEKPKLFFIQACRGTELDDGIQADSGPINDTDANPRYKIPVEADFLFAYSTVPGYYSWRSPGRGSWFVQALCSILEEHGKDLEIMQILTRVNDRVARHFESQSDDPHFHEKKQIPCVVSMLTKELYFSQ
# Fatty acid synthase [11] = target: T5, Fatty acid synthase (Homo sapiens, UniProt P49327); test: FAS thioesterase domain inhibitors, dose response, biochemical, endpoint fluorescence intensity, uHTS hits (AID 624327); format: functional;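 further: fluorescence from hydrolysis of an O-methyl fluorescein acyl ester substrate by the enzyme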
# T5 sequence (P49327 whole entry, the tested form may be a part): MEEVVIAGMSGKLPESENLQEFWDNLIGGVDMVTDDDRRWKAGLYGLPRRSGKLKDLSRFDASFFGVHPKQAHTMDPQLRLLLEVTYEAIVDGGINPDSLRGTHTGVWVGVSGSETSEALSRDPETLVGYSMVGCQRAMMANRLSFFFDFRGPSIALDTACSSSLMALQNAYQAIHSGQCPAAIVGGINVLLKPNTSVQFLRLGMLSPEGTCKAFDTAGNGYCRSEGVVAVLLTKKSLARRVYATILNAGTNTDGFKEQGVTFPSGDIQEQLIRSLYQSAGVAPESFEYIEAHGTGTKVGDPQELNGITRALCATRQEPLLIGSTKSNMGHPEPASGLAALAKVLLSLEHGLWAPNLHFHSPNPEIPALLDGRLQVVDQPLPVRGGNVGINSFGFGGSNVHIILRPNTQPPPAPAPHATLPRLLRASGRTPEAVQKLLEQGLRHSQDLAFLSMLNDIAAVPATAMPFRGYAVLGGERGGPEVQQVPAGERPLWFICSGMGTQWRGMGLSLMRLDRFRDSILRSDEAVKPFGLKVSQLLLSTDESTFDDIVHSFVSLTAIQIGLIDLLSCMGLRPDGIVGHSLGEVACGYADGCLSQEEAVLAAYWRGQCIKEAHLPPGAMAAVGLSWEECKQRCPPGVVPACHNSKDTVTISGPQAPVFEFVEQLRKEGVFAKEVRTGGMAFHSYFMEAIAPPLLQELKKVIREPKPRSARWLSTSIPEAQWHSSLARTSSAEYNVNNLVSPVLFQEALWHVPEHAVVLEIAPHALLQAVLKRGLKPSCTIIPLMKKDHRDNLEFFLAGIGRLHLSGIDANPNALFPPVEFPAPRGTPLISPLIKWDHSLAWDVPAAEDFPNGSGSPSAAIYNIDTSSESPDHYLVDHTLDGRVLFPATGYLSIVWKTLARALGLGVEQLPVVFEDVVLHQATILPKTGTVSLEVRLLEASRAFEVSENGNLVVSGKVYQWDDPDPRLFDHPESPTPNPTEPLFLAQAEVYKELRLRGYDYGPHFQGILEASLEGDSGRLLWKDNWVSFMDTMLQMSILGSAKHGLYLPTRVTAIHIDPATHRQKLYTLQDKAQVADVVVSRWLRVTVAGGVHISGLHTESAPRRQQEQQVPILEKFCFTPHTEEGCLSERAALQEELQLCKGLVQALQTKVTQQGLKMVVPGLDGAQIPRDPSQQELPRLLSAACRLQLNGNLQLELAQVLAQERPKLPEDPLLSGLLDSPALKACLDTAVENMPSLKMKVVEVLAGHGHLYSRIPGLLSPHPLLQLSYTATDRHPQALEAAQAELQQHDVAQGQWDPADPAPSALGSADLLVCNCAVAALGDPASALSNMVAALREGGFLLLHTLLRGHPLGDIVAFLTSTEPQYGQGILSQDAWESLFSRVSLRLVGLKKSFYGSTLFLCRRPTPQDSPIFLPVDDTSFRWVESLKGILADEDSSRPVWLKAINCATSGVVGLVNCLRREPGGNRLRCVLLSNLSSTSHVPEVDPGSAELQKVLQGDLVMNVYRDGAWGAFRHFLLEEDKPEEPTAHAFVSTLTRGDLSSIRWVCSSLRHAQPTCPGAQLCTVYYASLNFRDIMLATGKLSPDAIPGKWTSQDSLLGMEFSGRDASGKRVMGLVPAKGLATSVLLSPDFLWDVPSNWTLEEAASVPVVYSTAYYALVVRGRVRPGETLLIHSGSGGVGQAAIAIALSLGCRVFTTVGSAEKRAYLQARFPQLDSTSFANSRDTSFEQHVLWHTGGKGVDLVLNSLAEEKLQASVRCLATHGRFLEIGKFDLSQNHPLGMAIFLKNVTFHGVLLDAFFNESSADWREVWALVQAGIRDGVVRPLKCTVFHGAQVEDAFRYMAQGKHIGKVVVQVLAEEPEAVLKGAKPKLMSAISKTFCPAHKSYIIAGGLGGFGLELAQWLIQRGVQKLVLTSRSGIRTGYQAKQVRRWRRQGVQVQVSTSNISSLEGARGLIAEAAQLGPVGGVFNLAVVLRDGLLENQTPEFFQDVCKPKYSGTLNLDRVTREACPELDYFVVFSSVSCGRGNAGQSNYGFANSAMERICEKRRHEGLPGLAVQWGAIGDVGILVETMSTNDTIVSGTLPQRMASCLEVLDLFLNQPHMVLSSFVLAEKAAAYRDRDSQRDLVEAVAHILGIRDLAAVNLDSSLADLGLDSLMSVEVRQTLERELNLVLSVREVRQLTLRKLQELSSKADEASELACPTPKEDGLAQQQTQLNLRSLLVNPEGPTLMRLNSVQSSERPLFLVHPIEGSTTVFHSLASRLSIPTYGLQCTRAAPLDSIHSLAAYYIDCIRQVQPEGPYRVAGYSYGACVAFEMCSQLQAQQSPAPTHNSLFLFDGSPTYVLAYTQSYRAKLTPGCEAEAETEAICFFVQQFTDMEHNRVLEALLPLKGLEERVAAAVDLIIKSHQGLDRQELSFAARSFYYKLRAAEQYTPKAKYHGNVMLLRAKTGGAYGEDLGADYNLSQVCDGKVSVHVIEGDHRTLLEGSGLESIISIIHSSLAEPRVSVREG
# Fatty acid synthase [12] = target: T5, Fatty acid synthase; test: FAS thioesterase domain inhibitors, dose response, biochemical, kinetic fluorescence intensity (AID 624326); format: functional;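 further: rate of fluorescence rise from hydrolysis of a fluorogenic O-methyl fluorescein ester substrate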
compound,measurement,setting,value
CCCCCCCCCCOC(=O)C[n+]1c(COc2ccccc2OC)n(C)c2ccccc21,IC50,Jurkat,4.4 µM (active)
same,IC50,[1],15.1 µM (active)
same,AC50,INS1,1.04 µM (active)
same,AC50,[2],6.91 µM (active)
Cc1oc2c(c1C(=O)NCc1cccnc1)C(=O)c1ccccc1C2=O,AC50,Protein RecA,10.8 µM (active)
same,IC50,[3],0.158 µM (active)
same,EC50,[4],< 0.1 µM (active)
same,EC50,cells,0.232 µM (active)
same,IC50,[5],3.65 µM (active)
O=c1ccc2c(-c3ccccc3S(=O)(=O)O)c3ccc(O)c(O)c3oc-2c1O [PYROGALLOL RED],AC50,[6],1.78 µM (active)
same,AC50,HeLa,8.94 µM (active)
same,IC50,[7],24.1 µM (active)
same,IC50,[8],12.4 µM (active)
same,IC50,[9],> 100 µM (inactive)
same,IC50,[10],19.6 µM (active)
same,AC50,Caspase-7,> 70 µM (inactive)
same,IC50,Fatty acid synthase [11],16.2 µM (active)
same,IC50,Fatty acid synthase [12],10.4 µM (active)
